Measured values: patent publication US20230321185A1, “METHOD FOR TREATMENT OF TYPE-1 DIABETES IN A SUBJECT IN NEED THEREOF” (priority 2021, published 2023)

Assays:
Format in all cases: in vivo, Balb/c mice
[1] = system: insulin+ and glucagon+ cells of pancreatic islets; test: Immunohistochemistry of pancreas sections, insulin+ and glucagon+ cells; conditions: type 1 diabetic mice
Method: (§1) Each of the normal (N) (n=20) and diabetic (D) (n=20) groups was divided into four subgroups. The first group (N1 and D1) (n=5) received 6.7 mg/kg intraperitoneally growth hormone for two weeks. The second group (N2 and D2) (n=5) administrated 0.185 mg/kg intraperitoneally magainin II for approximately four weeks. The third group (N3 and D3) (n=5) first received 0.185 mg/kg of magainin II for four weeks, and then 6.7 mg/kg of growth hormone for two weeks. Finally, the fourth group (N4 and D4) (n=5) received only an equal volume of physiological saline instead of these treatments.
Fixed tissue in 4% paraformaldehyde for 30 min at 4° C., embedded in paraffin and applied to slides. The prepared 6-μm sections were assayed as described previously. The following primary antibodies were used in these assays: rabbit anti-insulin antibody (ab63820) (1/500), mouse anti-glucagon antibody sc-514592 (1/500), mouse anti-vimentin antibody sc-6260 (1/500), rabbit recombinant anti-Ki67 (ab197547) (1/500), rat anti-CD3 antibody (ab11089) (1/500), mouse anti-CD19 antibody (sc-373897) (1/500). […]
(§2) All values are depicted as mean±SEM and considered significant if p<0.05. […] Data were analyzed using GraphPad Prism software and the results of groups were compared with the ANOVA test.

[2] = Glucose tolerance test (GTT) at the end of the treatment; conditions: for effect on blood glucose levels both in FBS and GTT: diabetic mice
Method: as §1
(§3) FBS measurements before the treatment and weekly during the treatment, and glucose tolerance test (GTT) at the end of the treatment were performed. The pancreatic tissue was quickly removed and placed in a cold phosphate buffer saline (PBS). Some of the extracted tissues for additional tests were stored in a freezer (−80° C.) and some were immersed in 4% paraformaldehyde (PFA) for immunohistochemical staining.
(§4) FBS levels were measured after fasting mice for 6 h (7:00-13:00) with an Accu-Chek glucometer via tail vein. Also in the glucose tolerance test, six hours after the mice were deprived of food (7:00-13:00), the first FBS was measured and after that mouse administrated glucose (2 g/kg bodyweight, intraperitoneally), and then at the indicated time points post-injection, blood glucose levels were measured.

P-ERK = test: Western blot of pancreatic P-ERK; conditions: normal mice, vs N4 (saline)
Method: as §1
(§5) Proteins were extracted in RIPA buffer which are containing Tris-HCl buffer (100 mM, pH 7.5), ethylene diamine tetra acetic acid (EDTA, 10 mM), sodium pyrophosphate (10 mM), sodium fluoride (0.1 mM), sodium orthovanadate (10 mM), phenylmethylsulphonyl fluoride (PMSF, 2 mM), and aprotinin (10 mg/ml). The pancreas extracts were vortexed for 30 min frequently at 4° C. The homogenates were centrifuged at 12,000 rpm for 20 min at 4° C. The supernatants were stored in an −80° C. freezer. Total protein concentration was determined by the Lowry method. […]
as §2

[3] = Fasting blood sugar (FBS) in normal and STZ-induced type 1 diabetic mice; conditions: STZ-induced type 1 diabetic mice, IP; for mean percentage of FBS changes decreased by: end of treatment, value is a decrease (untreated D4 increased by 49.23%)
Method: In a 14-day period, diabetes type 1 was induced in a group of mice via injecting multiple low doses of Streptozotocin (STZ). Also, the other group of mice received an equal volume of citrate buffer (pH 4.5) intraperitoneally (I.P.) in the same procedure that was called the normal group.
as §1, §3
Diabetes type 1 was induced in a group of mice via injecting multiple low doses of Streptozotocin (STZ) (40 mg/kg, intraperitoneal) for five consecutive days. The STZ dissolved in the 50 mM sodium citrate buffer (pH 4.5) to a final concentration of 4 mg/ml, immediately prior to injection. Nine days after the last STZ injection, all the mice have their FBS (fasting blood sugar) over 200 mg/dl were considered as type 1 diabetic mice group.
as §4
The fasting blood sugars of mice in all diabetic and normal groups were measured before the treatment and weekly during the treatments. At the end of the treatments, the percentage of FBS changes were calculated. The average percentage of FBS alterations in each group was then determined. Finally, the average result of each group was compared and analyzed with other groups by prism software.

PAX4 = test: Western blot of pancreatic PAX4; conditions: normal mice, vs normal control group
Method: as §1, §5, §2

P-S6 = test: Western blot of pancreatic P-S6 (mTOR pathway activity)
Method: as §1
(§6) Proteins were extracted in RIPA buffer which are containing Tris-HCl buffer (100 mM, pH 7.5), ethylene diamine tetra acetic acid (EDTA, 10 mM), sodium pyrophosphate (10 mM), sodium fluoride (0.1 mM), sodium orthovanadate (10 mM), phenylmethylsulphonyl fluoride (PMSF, 2 mM), and aprotinin (10 mg/ml). The pancreas extracts were vortexed for 30 min frequently at 4° C. The homogenates were centrifuged at 12,000 rpm for 20 min at 4° C. The supernatants were stored in an −80° C. freezer. Total protein concentration was determined by the Lowry method.
(§7) De-freeze sample was added to loading buffer and dithiothreitol 0.5 M solution, then heated for 5 min at 95° C. Sodium dodecyl sulfate-polyacrylamide gel electrophoresis (SDS PAGE) and then protein transfer to a polyvinylidene difluoride (PVDF) blotting membrane was performed. […] Finally, a result image was developed based on Western Blot-ECL ([…]) Development Protocol.
(§8) All values are depicted as mean±SEM and considered significant if p<0.05. The arbitrary optical density unit was acquired using ImageJ software (version 1.46). Data were analyzed using GraphPad Prism software and the results of groups were compared with the ANOVA test.
The activity of mTOR pathway was appraised by evaluating the changes in ribosomal P-S6 expression. As a downstream factor of the mTOR pathway, results of pancreatic P-S6 expression in all treated diabetic and normal mice were compared with their control groups. Therefore, changes in P-S6 expression proportionally reflects the activity of mTOR pathway. […] Consequently, GH pulsatile secretion and temporally treatment period in this study via transient increase in mTOR activity can induce and enhance anabolic growth during the treatment, such as cell growth, ribosomal biogenesis, and protein synthesis.

P-STAT5 = test: Western blot of pancreatic P-STAT5; conditions: for P-STAT5 expression increase in comparison with control group: diabetic mice, vs D4 (saline); for P-STAT5 expression increase compared with control group: normal mice, vs N4 (saline)
Method: as §1, §6, §7, §8

Substance	beta cell regeneration [1]	effect on blood glucose levels both in FBS and GTT [2]	P-ERK expression increase in comparison with control group (P-ERK)	approximate improvement rate of fasting blood sugar in comparison with untreated control diabetic group [3]	mean percentage of FBS changes decreased by [3]	Pax4 expression increase in comparison with control group (PAX4)	P-S6 expression increase in comparison with control group (P-S6; diabetic mice, vs D4 (saline))	P-S6 expression increase in comparison with control group (P-S6; normal mice, vs N4 (saline))	P-STAT5 expression increase in comparison with control group (P-STAT5)	P-STAT5 expression increase compared with control group (P-STAT5)	blood sugar course in GTT ([2]; normal mice, glucose 2 g/kg IP)
GIGKFLHSAKKFGKAFVGEIMNS (listed as Xenopus laevis) [magainin, cationic, amphipathic, a-helical antimicrobial peptide with twenty-three amino acids, synthesized by Biomatik]	effective beta cell regeneration	greatest effect on reducing blood sugar	no significant difference	~97.13%	47.9%	~125%	no significant difference	slight and not significant	not statistically significant	slight and non-significant increase	–
GH: Human Growth Hormone produced by EXIR under the brand name Exitropin 4 IU (1.3 mg) (Somatropin), lyophilized powder	effective beta cell regeneration	less attenuating effect	no significant difference	~57.43%	8.2%	~135%	no significant difference	slight and not significant	not statistically significant	slight and non-significant increase	higher than in other normal groups
